Data: US20070042937A1, “Inhibitors of 2-oxoglutarate dioxygenase as gamma globin inducers” (FibroGen, Inc., priority 2003, published 2007)
Where two headings read alike, the source gives them in different places.

Key:
[1] = test system: CD34+ human bone marrow progenitor cells; experiment: Percent HbF-positive cells (F-cells) in CD34+ bone marrow progenitor cell cultures by flow cytometry; settings: for increase in F-cells over untreated cultures / increase in F-cells over untreated cultures, in combination with HU: CD34+ cells, only during Phase II, FIG. 3B; for increase in F-cells over untreated cultures, in combination with HU: in combination with 5 μM HU
K562 cells = settings: 4 days, 20 μM, FIG. 2
[2] = test system: CD34+ human bone marrow progenitor cells; settings: FIG. 4B; for total hemoglobin in the cultures: compound alone
Procedure: Following phase I and II of the culture period, cells were harvested and approximately 1-2×10^5 cells were placed into round-bottom 96-well microtiter plates for each flow cytometry sample. The assay buffer for all washes and the diluent used for antibodies is PBS containing 0.1% BSA.
For HbF and Hb-specific immunolabeling, cells were pelleted by centrifugation at 1200 rpm for 2 minutes in a swinging bucket centrifuge (Beckman Coulter, Fullerton Calif.) with adaptors for microtiter plates, and the supernatant was aspirated. The cells were resuspended and lightly fixed in 100 ml of buffer containing 0.05% glutaraldehyde for 10 minutes, followed by addition of 100 ml of buffer and pelleting by centrifugation exactly as described above. The cells were washed two more times (for a total of 2.5 washes) before resuspension in buffer containing 1% Triton-X 100 for 5 min, to permeabilize the cells and enable penetration of antibodies. Following an additional 2.5 washes as described, cells were resuspended with 100 ml of buffer containing antibodies specific for HbF or the appropriate monoclonal isotype control (Caltag Laboratories, Burlingame Calif.), or total Hb and the matched polyclonal isotype control (BiosPacific, Emeryville Calif.).
The antibodies for HbF and isotype-matched control were directly conjugated to fluorochromes, so after antibody incubation the cells were washed as above before fixation in 1% formaldehyde, and stored at 4° C. in the dark until analysis. […] After an additional 2.5 washes, cells were fixed in 1% formaldehyde and stored at 4° C. in the dark until analysis.

[3] = test system: CD34+ human bone marrow progenitor cells; settings: for increase in HbF expression over untreated controls: added to both Phases I and II; for increase in HbF expression as assessed by MFI: compound alone, only during Phase II; for increase in HbF expression: CD34+ progenitor cell cultures, single assay, single cultures, FIG. 6; for increase in HbF synthesis compared to vehicle controls: added during EPO-dependent Phase II, FIG. 3A
γ-globin = γ-globin mRNA expression in K562 cells by quantitative PCR, normalized to 18S rRNA; format: cell-based, human; settings: FIG. 1A
Procedure: For studies utilizing the human erythroleukemia K562 cell line (ATCC), cells were grown and cultured in complete medium (RPMI 1640, 10% fetal calf serum (FCS), 100 U/ml penicillin and 0.1 mg/ml streptomycin) in a humidified incubator at 37° C., 95% air, 5% CO2-HPIs were titrated into duplicate cultures at dosage levels spanning more than 100-fold differences in concentration, and incubated from 24 to 96 hours prior to harvesting and quantitation of F-cells and HbF levels by flow cytometry.
Each PCR run included a standard curve and water blank. In addition, a melt curve was run after completion of each PCR run to assess the specificity of the amplification. γ-globin gene expression was normalized relative to the expression level of 18S ribosomal RNA for each sample.

O=C(O)CNC(=O)c1nc(Cl)c2ccccc2c1O [HPI-1, N-((1-chloro-4-hydroxy-isoquinoline-3-carbonyl)-amino)-acetic acid]
HbF expression (percent F-cells) when used together with HU ([1]; 20 μM plus HU, FIG. 5A): additive | HbF expression as measured by percent F-cells, compared to vehicle control (DMSO) ([1]; 20 μM, triplicate, FIG. 5A): increased | increase in F-cells over untreated cultures ([1]; compound alone): 29% | increase in F-cells over untreated cultures, in combination with HU [1]: 58% | increase in F-cells ([1]; CD34+ progenitor cells, 20 μM, FIG. 4A): 50% | F-cells, co-treatment with HU or butyrate ([1]; CD34+ progenitor cells, co-treatment with HPI-1 and HU or butyrate, FIG. 4A): additive increase | increase in HbF synthesis compared to negative control cultures (K562 cells): 23-52% | total hemoglobin, co-treatment with HU or butyrate ([2]; co-treatment with HPI-1 and HU or butyrate): no significant change | total hemoglobin in the cultures [2]: did not cause a general increase | HbF expression (MFI for HbF) when used together with HU ([3]; 20 μM plus HU, FIG. 5B): additive | HbF expression as measured by MFI for HbF, compared to vehicle control (DMSO) ([3]; 20 μM, triplicate, FIG. 5B): increased | increase in HbF expression over untreated controls ([3]; CD34+ cells, 10 μM): 12% | increase in HbF expression over untreated controls ([3]; CD34+ cells, 20 μM): 47% | increase in HbF expression as assessed by MFI ([3]; CD34+ cells): 36%

COc1ccc2c(O)c(C(=O)NCC(=O)O)nc(Cl)c2c1 [HPI-3, [(1-Chloro-4-hydroxy-7-methoxy-isoquinoline-3-carbonyl)-amino]-acetic acid]
increase in HbF expression [3]: about 10%

O=C(O)CNC(=O)c1nc2cc(Cl)ccc2cc1O [HPI-4, [(7-Chloro-3-hydroxy-quinoline-2-carbonyl)-amino]-acetic acid]
increase in HbF expression [3]: 56%

O=C(O)CNC(=O)c1ncc2cc(Sc3ccccc3)ccc2c1O [HPI-6, [(4-Hydroxy-7-phenylsulfanyl-isoquinoline-3-carbonyl)-amino}-acetic acid]
expression of the gene encoding γ-globin (γ-globin; 3 days, 0, 3, 4.5, 10, 12.5 or 20 μM): increased in a dose-dependant manner | γ-globin expression with further addition of hydroxyurea (γ-globin; 3 days, plus 100 μM HU, especially at lower concentrations): augmented

NC(=O)NO [HU, hydroxyurea, reference compound]
F-cells ([1]; CD34+ progenitor cells, compound alone, FIG. 4A): increases | total hemoglobin in the cultures [2]: increases | increase in HbF synthesis compared to vehicle controls ([3]; CD34+ cells): 50%

CC(C)Oc1ccc2nc(C(=O)NCC(=O)O)c(O)cc2c1 [HPI-5, [(3-Hydroxy-6-isopropoxy-quinoline-2-carbonyl)-amino]-acetic acid]
increase in HbF expression [3]: 75%

O=C(O)CNC(=O)c1ncc2cc(Br)ccc2c1O [HPI-2, [(7-Bromo-4-hydroxy-isoquinoline-3-carbonyl)-amino]-acetic acid]
increase in F-cells over untreated cultures ([1]; compound alone): 12% | increase in F-cells over untreated cultures, in combination with HU [1]: 29% | increase in HbF synthesis compared to negative control cultures (K562 cells): 77% | increase in HbF expression over controls ([3]; CD34+ cells, added during both phases, concentration not given): 40% | increase in HbF expression as assessed by MFI ([3]; CD34+ cells): 5% | increase in HbF expression [3]: about 10%

CCCC(=O)O [butyrate, reference compound]
increase in HbF synthesis compared to vehicle controls ([3]; CD34+ cells): 85%
